Experimental data reported in US20240318141A1, “MATURATION AGENT” (Orizuru Therapeutics, Inc., priority 2021, published 2024).
“And” between values parts separate entries of the source, which are not always exact repeats. Identical values can stand only once.

Tested on: non-endocrine cells in insulin-producing cell population (QHJI-I14s04 iPS cell line)
Assay: Cisplatin or docetaxel treatment in step 6), then extended culture in basal medium containing EGF (Example 2)
Assay type: cell-based, human
From the text: The differentiation of a QHJI-I14s04 iPS cell line into an insulin-producing cell population was induced by the three-dimensional culture method using a bioreactor according to steps 1) to 6) described above and the previous report (Nature Biotechnology 2014; 32: 1121-1133). Specifically, the iPS cells were subjected to the first culture in a medium (DMEM/1% B-27 (INS+)/Penicillin Streptomycin/dimethyl sulfoxide) containing differentiation-inducing factors (GSK3β inhibitor, ROCK inhibitor and low dose of activin A) under conditions causing action of insulin, and subsequently subjected to the second culture in a medium (DMEM/1% B-27 (INS−)/Penicillin Streptomycin/dimethyl sulfoxide) containing a differentiation-inducing factor (low dose of activin A) under conditions causing no action of insulin to obtain a definitive endoderm cell population. Further, a pancreatic endocrine progenitor cell population obtained by the induction of differentiation from the definitive endoderm cell population was cultured in a medium (Improved MEM/1% B-27 (INS+)/Penicillin Streptomycin) containing differentiation-inducing factors (ALK5 inhibitor II, T3, LDN, Y-secretase inhibitor RO, and ascorbic acid) and FGF receptor 1 inhibitor (PD-166866) to obtain an insulin-producing cell population.
An insulin-producing cell population obtained without the addition of cisplatin and docetaxel was used as a control cell population and subjected to extended culture in the same manner as above.
Marker protein expression (PDX1, CHGA, and Ki67) in each insulin-producing cell population before the start of and after the completion of extended culture was measured by flow cytometry. Samples after the completion of extended culture were collected by sampling three times from the same culture container. The number of cells was measured in an automatic cell counter at the time of sample preparation for flow cytometry, and the total number of cells per mL of the bioreactor was calculated. The number of CHGA-positive cells, the number of PDX1-positive and CHGA-negative cells, and the number of PDX1-negative and CHGA-negative cells were calculated from the obtained total number of cells and the flow cytometry results.

[1] = after extended culture 4 weeks, EGF present, average of three samplings
[2] = after extended culture 4 weeks, EGF present, single samplings
[3] = after extended culture involving EGF, with respect to control cell population
[4] = s6d11 (before extended culture); 3 μM cisplatin or 1 μM docetaxel for 7 days from day 4 of step 6)

## CC(=O)O[C@@]12CO[C@@H]1C[C@H](O)[C@@]1(C)C(=O)[C@H](O)C3=C(C)[C@@H](OC(=O)[C@H](O)[C@@H](NC(=O)OC(C)(C)C)c4ccccc4)C[C@@](O)([C@@H](OC(=O)c4ccccc4)[C@H]21)C3(C)C [Docetaxel, (−)-(1S,2S,3R,4S,5R,7S,8S,10R,13S)-4-Acetoxy-2-benzoyloxy-5,20-epoxy-1,7,10-trihydroxy-9-oxotax-11-en-13-yl (2R,3S)-3-tert-butoxycarbonylamido-2-hydroxy-3-phenylpropionate]
1 μM docetaxel, extended culture with EGF
  population exhibiting marked increase by extended culture (table footnote): No population exhibited marked increase by extended culture
[1]
  The number of cells CHGA+, average: 22 ×10^4 cells/mL
  The number of cells PDX+/CHGA−, average: 1.7 ×10^4 cells/mL
  The number of cells PDX−/CHGA−, average: 2.8 ×10^4 cells/mL
  Total number of cells, average: 27 ×10^4 cells/mL
[2]
  The number of cells CHGA+: 21 ×10^4 cells/mL and 22 ×10^4 cells/mL and 24 ×10^4 cells/mL
  The number of cells PDX+/CHGA−: 2.0 ×10^4 cells/mL and 1.5 ×10^4 cells/mL
  The number of cells PDX−/CHGA−: 3.1 ×10^4 cells/mL and 2.7 ×10^4 cells/mL
  Total number of cells: 26 ×10^4 cells/mL and 28 ×10^4 cells/mL
[3]
  proportion of PDX1-negative and CHGA-negative (PDX1−/CHGA−) cells: drastically decreased
  proportion of PDX1-positive and CHGA-negative (PDX1+/CHGA−) cells: drastically decreased
Extended culture involving EGF
  total number of cells after extended culture (in words): decreased
[4]
  The number of cells CHGA+: 73 ×10^4 cells/mL
  The number of cells PDX+/CHGA−: 1.3 ×10^4 cells/mL
  The number of cells PDX−/CHGA−: 0.1 ×10^4 cells/mL
  Total number of cells: 74 ×10^4 cells/mL
With respect to control cell population
  number of CHGA-positive endocrine cells after extended culture (in words): not changed
